The NIST ThermoML archive (doi:10.1016/j.jct.2004.11.016)

Experiment: xn = mol fraction of the nth substance listed
Conditions: Liquid; for mass density: 101.3 kPa; for viscosity: 101 kPa

CN(C)CCO [2-(N,N-dimethylamino)ethanol] + O
Conditions	mass density [kg/m3]	viscosity [mPa·s]
293.15 K, x1 = 0.0121	996.588	–
293.15 K, x1 = 0.0218	995.236	–
293.15 K, x1 = 0.0252	994.947	–
293.15 K, x1 = 0.0359	994.033	–
293.15 K, x1 = 0.0617	992.027	–
293.15 K, x1 = 0.1009	988.909	–
293.15 K, x1 = 0.2017	973.822	–
293.15 K, x1 = 0.3033	956.823	–
293.15 K, x1 = 0.4051	941.071	–
293.15 K, x1 = 0.5077	927.808	–
293.15 K, x1 = 0.6099	916.51	–
293.15 K, x1 = 0.7652	903.034	–
293.15 K, x1 = 0.895	894.185	–
293.15 K, x1 = 1	887.816	–
298.15 K, x1 = 0.0121	995.282	–
298.15 K, x1 = 0.0218	993.748	–
298.15 K, x1 = 0.0252	993.401	–
298.15 K, x1 = 0.0359	992.24	–
298.15 K, x1 = 0.0617	989.74	–
298.15 K, x1 = 0.1009	985.747	–
298.15 K, x1 = 0.2017	969.911	–
298.15 K, x1 = 0.3033	952.768	–
298.15 K, x1 = 0.4051	936.991	–
298.15 K, x1 = 0.5077	923.722	–
298.15 K, x1 = 0.6099	912.41	–
298.15 K, x1 = 0.7652	898.903	–
298.15 K, x1 = 0.895	889.991	–
298.15 K, x1 = 1	883.578	–
303.15 K, x1 = 0.0121	993.747	–
303.15 K, x1 = 0.0218	992.024	–
303.15 K, x1 = 0.0252	991.591	–
303.15 K, x1 = 0.0359	990.239	–
303.15 K, x1 = 0.0617	987.103	–
303.15 K, x1 = 0.1009	982.49	–
303.15 K, x1 = 0.2017	965.929	–
303.15 K, x1 = 0.3033	948.646	–
303.15 K, x1 = 0.4051	932.844	–
303.15 K, x1 = 0.5077	919.567	–
303.15 K, x1 = 0.6099	908.259	–
303.15 K, x1 = 0.7652	894.723	–
303.15 K, x1 = 0.895	885.767	–
303.15 K, x1 = 1	879.315	–
308.15 K, x1 = 0.0121	991.994	–
308.15 K, x1 = 0.0218	990.035	–
308.15 K, x1 = 0.0252	989.243	–
308.15 K, x1 = 0.0359	988.048	–
308.15 K, x1 = 0.0617	984.421	–
308.15 K, x1 = 0.1009	979.144	–
308.15 K, x1 = 0.2017	961.896	–
308.15 K, x1 = 0.3033	944.47	–
308.15 K, x1 = 0.4051	928.641	–
308.15 K, x1 = 0.5077	915.367	–
308.15 K, x1 = 0.6099	904.055	–
308.15 K, x1 = 0.7652	890.503	–
308.15 K, x1 = 0.895	881.507	–
308.15 K, x1 = 1	875.017	–
313.15 K, x1 = 0.0121	989.83	–
313.15 K, x1 = 0.0218	987.566	–
313.15 K, x1 = 0.0252	986.624	–
313.15 K, x1 = 0.0359	985.713	–
313.15 K, x1 = 0.0617	981.605	–
313.15 K, x1 = 0.1009	975.714	2.669
313.15 K, x1 = 0.2017	957.808	5.071
313.15 K, x1 = 0.3033	940.237	6.593
313.15 K, x1 = 0.4051	924.379	6.58
313.15 K, x1 = 0.5077	911.114	5.885
313.15 K, x1 = 0.6099	899.803	4.784
313.15 K, x1 = 0.7652	886.233	3.467
313.15 K, x1 = 0.895	877.213	2.72
313.15 K, x1 = 1	870.686	2.238
318.15 K, x1 = 0.0121	986.678	–
318.15 K, x1 = 0.0218	985.311	–
318.15 K, x1 = 0.0359	983.206	–
318.15 K, x1 = 0.0617	978.661	–
318.15 K, x1 = 0.1009	972.197	–
318.15 K, x1 = 0.2017	953.663	–
318.15 K, x1 = 0.3033	935.946	–
318.15 K, x1 = 0.4051	920.062	–
318.15 K, x1 = 0.5077	906.806	–
318.15 K, x1 = 0.6099	895.501	–
318.15 K, x1 = 0.7652	881.923	–
318.15 K, x1 = 0.895	872.876	–
318.15 K, x1 = 1	866.316	–
323.15 K, x1 = 0.0617	975.591	–
323.15 K, x1 = 0.1009	968.595	1.957
323.15 K, x1 = 0.2017	949.451	3.487
323.15 K, x1 = 0.3033	931.598	4.435
323.15 K, x1 = 0.4051	915.685	4.433
323.15 K, x1 = 0.5077	902.436	4.044
323.15 K, x1 = 0.6099	891.144	3.393
323.15 K, x1 = 0.7652	877.562	2.573
323.15 K, x1 = 0.895	868.495	2.089
323.15 K, x1 = 1	861.902	1.756
328.15 K, x1 = 0.0617	972.399	–
328.15 K, x1 = 0.1009	964.905	–
328.15 K, x1 = 0.2017	945.194	–
328.15 K, x1 = 0.3033	927.188	–
328.15 K, x1 = 0.4051	911.247	–
328.15 K, x1 = 0.5077	898.016	–
328.15 K, x1 = 0.6099	886.733	–
328.15 K, x1 = 0.7652	873.15	–
328.15 K, x1 = 0.895	864.065	–
328.15 K, x1 = 1	857.46	–
333.15 K, x1 = 0.0617	969.09	–
333.15 K, x1 = 0.1009	961.13	1.499
333.15 K, x1 = 0.2017	940.864	2.511
333.15 K, x1 = 0.3033	922.714	3.091
333.15 K, x1 = 0.4051	906.75	3.126
333.15 K, x1 = 0.5077	893.531	2.897
333.15 K, x1 = 0.6099	882.262	2.503
333.15 K, x1 = 0.7652	868.68	1.969
333.15 K, x1 = 0.895	859.595	1.641
333.15 K, x1 = 1	852.965	1.413
338.15 K, x1 = 0.0617	965.663	–
338.15 K, x1 = 0.1009	957.253	–
338.15 K, x1 = 0.2017	936.472	–
338.15 K, x1 = 0.3033	918.174	–
338.15 K, x1 = 0.4051	902.184	–
338.15 K, x1 = 0.5077	888.98	–
338.15 K, x1 = 0.6099	877.726	–
338.15 K, x1 = 0.7652	864.16	–
338.15 K, x1 = 0.895	855.072	–
338.15 K, x1 = 1	848.423	–
343.15 K, x1 = 0.0617	961.835	–
343.15 K, x1 = 0.1009	953.308	1.186
343.15 K, x1 = 0.2017	932.014	1.896
343.15 K, x1 = 0.3033	913.564	2.27
343.15 K, x1 = 0.4051	897.541	2.302
343.15 K, x1 = 0.5077	884.364	2.152
343.15 K, x1 = 0.6099	873.127	1.909
343.15 K, x1 = 0.7652	859.582	1.551
343.15 K, x1 = 0.895	850.491	1.317
343.15 K, x1 = 1	843.844	1.156
348.15 K, x1 = 0.0617	957.228	–
348.15 K, x1 = 0.1009	949.273	–
348.15 K, x1 = 0.2017	927.488	–
348.15 K, x1 = 0.3033	908.868	–
348.15 K, x1 = 0.4051	892.846	–
348.15 K, x1 = 0.5077	879.677	–
348.15 K, x1 = 0.6099	868.45	–
348.15 K, x1 = 0.7652	854.939	–
348.15 K, x1 = 0.895	845.858	–
348.15 K, x1 = 1	839.205	–
353.15 K, x1 = 0.0617	952.666	–
353.15 K, x1 = 0.1009	945.149	0.966
353.15 K, x1 = 0.2017	922.889	1.47
353.15 K, x1 = 0.3033	904.132	1.724
353.15 K, x1 = 0.4051	888.074	1.75
353.15 K, x1 = 0.5077	874.926	1.65
353.15 K, x1 = 0.6099	863.729	1.493
353.15 K, x1 = 0.7652	850.236	1.247
353.15 K, x1 = 0.895	841.163	1.078
353.15 K, x1 = 1	834.521	0.963
358.15 K, x1 = 0.0617	950.878	–
358.15 K, x1 = 0.1009	940.935	–
358.15 K, x1 = 0.2017	918.216	–
358.15 K, x1 = 0.3033	899.314	–
358.15 K, x1 = 0.4051	883.233	–
358.15 K, x1 = 0.5077	870.101	–
358.15 K, x1 = 0.6099	858.928	–
358.15 K, x1 = 0.7652	845.484	–
358.15 K, x1 = 0.895	836.414	–
358.15 K, x1 = 1	829.779	–
363.15 K, x1 = 0.0617	946.398	–
363.15 K, x1 = 0.1009	936.638	–
363.15 K, x1 = 0.2017	913.472	–
363.15 K, x1 = 0.3033	894.425	–
363.15 K, x1 = 0.4051	878.314	–
363.15 K, x1 = 0.5077	865.197	–
363.15 K, x1 = 0.6099	854.052	–
363.15 K, x1 = 0.7652	840.646	–
363.15 K, x1 = 0.895	831.596	–
363.15 K, x1 = 1	824.969	–
